Laboratory results as given in PubChem BioAssay AID2060605 (Molecular Pharmacology Branch, DTP, NCI, 2025).

Test system: 947758-054-R-J2-PDC spheroid growth, percent test/control
Experiment: Anticancer human tumor 947758-054-R-J2-PDC patient-derived colon adenocarcinoma cell line growth inhibition [CLK]
Settings: spheroids with HUVEC and MSC; for IC50: curve of first compound; for viability, T/C: stronger effect = lower value
Method in brief: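 Multi-cell-type spheroids combined patient-derived tumor cells with HUVEC endothelial cells and human mesenchymal stem cells. Paired agents were dosed in half-log steps down from about clinical Cmax, or from 10 microM where Cmax was unknown.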

[1] = second compound 0.0316 µM, first compound 0.0316 µM
[2] = second compound 0.0316 µM, first compound 0.1 µM
[3] = second compound 0.0316 µM, first compound 0.316 µM
[4] = second compound 0.0316 µM, first compound 1 µM
[5] = second compound 0.0316 µM, first compound 3.16 µM
[6] = second compound 0.0316 µM, first compound 10 µM
[7] = second compound 0.1 µM, first compound 0.0316 µM
[8] = second compound 0.1 µM, first compound 0.1 µM
[9] = second compound 0.1 µM, first compound 0.316 µM
[10] = second compound 0.1 µM, first compound 1 µM
[11] = second compound 0.1 µM, first compound 3.16 µM
[12] = second compound 0.1 µM, first compound 10 µM
[13] = second compound 0.316 µM, first compound 0.0316 µM
[14] = second compound 0.316 µM, first compound 0.1 µM
[15] = second compound 0.316 µM, first compound 0.316 µM
[16] = second compound 0.316 µM, first compound 1 µM
[17] = second compound 0.316 µM, first compound 3.16 µM
[18] = second compound 0.316 µM, first compound 10 µM
[19] = second compound 1 µM, first compound 0.0316 µM
[20] = second compound 1 µM, first compound 0.1 µM
[21] = second compound 1 µM, first compound 0.316 µM
[22] = second compound 1 µM, first compound 1 µM
[23] = second compound 1 µM, first compound 3.16 µM
[24] = second compound 1 µM, first compound 10 µM
[25] = second compound 3.16 µM, first compound 0.0316 µM
[26] = second compound 3.16 µM, first compound 0.1 µM
[27] = second compound 3.16 µM, first compound 0.316 µM
[28] = second compound 3.16 µM, first compound 1 µM
[29] = second compound 3.16 µM, first compound 3.16 µM
[30] = second compound 3.16 µM, first compound 10 µM
[31] = second compound 10 µM, first compound 0.0316 µM
[32] = second compound 10 µM, first compound 0.1 µM
[33] = second compound 10 µM, first compound 0.316 µM
[34] = second compound 10 µM, first compound 1 µM
[35] = second compound 10 µM, first compound 3.16 µM
[36] = second compound 10 µM, first compound 10 µM
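Further: spheroids exposed to compounds for one week before readout.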
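Wherever viability, T/C is given: 100% = DMSO vehicle control wells.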

O=C(c1cc(Cc2n[nH]c(=O)c3ccccc23)ccc1F)N1CCN(C(=O)C2CC2)CC1 + CN1CCN(c2cc(C(=O)Nc3cc4cc(-c5cnn(C)c5)ccc4cn3)ccn2)CC1
IC50 (second compound 0.0316 µM): > 10000 nM | IC50 (second compound 0.1 µM): > 10000 nM | IC50 (second compound 0.316 µM): < 31.6 nM | IC50 (second compound 1 µM): < 31.6 nM | IC50 (second compound 3.16 µM): < 31.6 nM | IC50 (second compound 10 µM): < 31.6 nM | viability, T/C [1]: 137% | viability, T/C [2]: 108% | viability, T/C [3]: 127% | viability, T/C [4]: 111% | viability, T/C [5]: 139% | viability, T/C [6]: 222% | viability, T/C [7]: 173% | viability, T/C [8]: 187% | viability, T/C [9]: 179% | viability, T/C [10]: 180% | viability, T/C [11]: 206% | viability, T/C [12]: 119% | viability, T/C [13]: 3.05% | viability, T/C [14]: 3.52% | viability, T/C [15]: 3.12% | viability, T/C [16]: 2.9% | viability, T/C [17]: 2.97% | viability, T/C [18]: 2.81% | viability, T/C [19]: 0.13% | viability, T/C [20]: 0.13% | viability, T/C [21]: 0.15% | viability, T/C [22]: 0.09% | viability, T/C [23]: 0.15% | viability, T/C [24]: 0.18% | viability, T/C [25]: 0.14% | viability, T/C [26]: 0.24% | viability, T/C [27]: 0.22% | viability, T/C [28]: 0.18% | viability, T/C [29]: 0.73% | viability, T/C [30]: 0.27% | viability, T/C [31]: 0.31% | viability, T/C [32]: 0.36% | viability, T/C [33]: 0.95% | viability, T/C [34]: 0.29% | viability, T/C [35]: 0.44% | viability, T/C [36]: 0.35%

O=c1[nH]cc(F)c(=O)[nH]1 + CN1CCN(c2cc(C(=O)Nc3cc4cc(-c5cnn(C)c5)ccc4cn3)ccn2)CC1
IC50 (second compound 0.0316 µM): 8260 nM | IC50 (second compound 0.1 µM): 6150 nM | IC50 (second compound 0.316 µM): < 31.6 nM | IC50 (second compound 1 µM): < 31.6 nM | IC50 (second compound 3.16 µM): < 31.6 nM | IC50 (second compound 10 µM): < 31.6 nM | viability, T/C [1]: 124% | viability, T/C [2]: 113% | viability, T/C [3]: 103% | viability, T/C [4]: 143% | viability, T/C [5]: 83.8% | viability, T/C [6]: 43.2% | viability, T/C [7]: 150% | viability, T/C [8]: 167% | viability, T/C [9]: 159% | viability, T/C [10]: 166% | viability, T/C [11]: 69.1% | viability, T/C [12]: 36% | viability, T/C [13]: 4.49% | viability, T/C [14]: 7.16% | viability, T/C [15]: 4.59% | viability, T/C [16]: 5.49% | viability, T/C [17]: 4.38% | viability, T/C [18]: 3.92% | viability, T/C [19]: 0.14% | viability, T/C [20]: 0.31% | viability, T/C [21]: 1.1% | viability, T/C [22]: 0.1% | viability, T/C [23]: 2.13% | viability, T/C [24]: 0.12% | viability, T/C [25]: 0.24% | viability, T/C [26]: 1.5% | viability, T/C [27]: 0.14% | viability, T/C [28]: 0.16% | viability, T/C [29]: 0.18% | viability, T/C [30]: 2.35% | viability, T/C [31]: 0.67% | viability, T/C [32]: 0.21% | viability, T/C [33]: 0.25% | viability, T/C [34]: 0.21% | viability, T/C [35]: 1.51% | viability, T/C [36]: 0.31%
